Results published in patent US20130045952A1, “ABA Receptor Agonists for Increased Plant Stress Resistance” (Van Andel Research Institute, priority 2011, published 2013).

Key:
PYL2 A93F = biological target: T1, PYL2 A93F (Arabidopsis thaliana, UniProt O80992, A93F); assay: PP2C binding and phosphatase assays of mutant PYL2 A93F; format: biochemical
T1 construct: PYL2 (residues 14-188), and HAB1 (residues 172-511) were prepared as recombinant proteins in E. coli; made in house; host or cells: E. coli (stated for PYL2 in general)
From the text: The closest distance between the pyridine ring of pyrabactin and the LPA gating residues is 4.8 Å-7.0 Å when the LPA loop assumes the ABA-bound closed conformation, but is 11-13 Å when the LPA gate is in open conformation. In contrast, the distance of the naphthalene double ring of pyrabactin or the cyclohexene ring of ABA to the three side chains of the LPA gate in the PYL1 structure is 3.4-4.6 Å, a range for strong Van der Waals interactions, thus helping to keep the LPA gate in the closed conformation. […] To validate this hypothesis, we changed the alanine in the LPA loop to a larger residue. […] As expected from structural modeling, replacement of the gate residue A93 with the bulky phenylalanine ring also abrogated ABA to promote PYL2 activation.
(§1) Mutant proteins were expressed as H6GST-fusion proteins and purified by glutathione sepharose chromatography. Protein-protein interactions were determined by luminescence proximity AlphaScreen assay. Biotinylated PP2C proteins for the luminescence proximity assay were generated by in vivo biotinylation of avitag-PP2C fusion proteins. PP2C phosphatase activity was measured by phosphate release from a SnRK2.6 phosphoprotein.
(§2) Site-directed mutagenesis was carried out using the QuickChange method (Stratagene). Mutations and all plasmid constructs were confirmed by sequencing.

[1] = tested on: PP2Cs HAB1, ABI1, and ABI2; assay: Phosphatase assays, PYR/PYL receptor-dependent inhibition of PP2Cs; format: biochemical
Experimental: (§3) To determine the biochemical basis of these observations, we used purified proteins of PYR1 and PYL1 to PYL6 to measure their interactions with three PP2Cs, HAB1, ABI1, and ABI2, in vitro. […] In phosphatase assays, pyrabactin promoted PYR1, PYL1, PYL3, PYL5, and PYL6, but not PYL2 and PYL4, to inhibit all three PP2Cs.
as §1
PP2Cs and PYR/PYL proteins were pre-incubated at the indicated concentrations in 50 mM imidazole, pH 7.2, 5 mM MgCl2, 0.1% β-mercaptoethanol and 0.5 mg/ml BSA for 30 min at room temperature. Reactions were started by addition of 100 μM of a phosphopeptide corresponding to amino acids 170-180 of SnRK2.6 (HSQPK^pSTVGTP). This peptide is phosphorylated at a single residue corresponding to Ser175 in SnRK2.6, whose phosphorylation is required for SnRK2.6 kinase activity^32. Phosphate release from ^pS175 from the phosphopeptide was determined by colorimetric assay (BioVision).

[2] = tested on: PYL4 / PP2Cs (HAB1, ABI1, ABI2); assay: In vitro PYL4-PP2C interaction; format: biochemical; conditions: purified proteins in vitro
Experimental: as §3, §1
Interactions between PYR/PYL and PP2Cs were assessed by luminescence-proximity AlphaScreen technology (Perkin Elmer). Briefly, biotinylated PP2Cs were attached to streptavidin-coated donor beads, and H6-tagged PYR/PYL receptors were attached to nickel-chelated acceptor beads. The donor and acceptor beads were brought into proximity by the interactions between PYR/PYLs and PP2Cs, which were measured with and without ligands. When excited by a laser beam of 680 nm, the donor beam emits singlet oxygen that activates thioxene derivatives in the acceptor beads, which releases photons of 520-620 nm as the binding signal. […]

PYL1 I137V = biological target: T2, PYL1 I137V (Arabidopsis thaliana, UniProt Q8VZS8, I137V); assay: PP2C interaction of mutant PYL1 I137V receptors; format: biochemical; conditions: mutation of PYL1 I137 to valine; also in PYL1 A190V or V193I context
T2 construct: PYL1 (residues 36-211), PYL2 (residues 14-188), and HAB1 (residues 172-511) were prepared as recombinant proteins in E. coli; made in house; host or cells: E. coli (stated for PYL1 in general)
Experimental: One key question is why pyrabactin adopts different conformations between PYL1 and PYL2. The ligand binding pockets of PYL2 and PYL1 only differ in three residues (PYL2/PYL1: V114/1137, V166/A190, and V170/1194). […] In contrast, the V114/1137 change in PYL1 collides with the naphthalene ring of pyrabactin in the PYL2 conformation (C—C distance of 2.2 Å) and forces pyrabactin to flip by 180°. […] Due to the very weak pyrabactin agonist activity in wildtype PYL1, this change is most clearly seen in the context of two mutant PYL1 receptors, in which residues A190 and V193 from helix 3 were exchanged against larger side chains that stabilize the binding of pyrabactin.
as §1, §2

[3] = tested on: RD29B promoter-LUC reporter; assay: Protoplast transient assay, reconstituted ABA signaling pathway, RD29B-LUC reporter; format: cell-based, Arabidopsis thaliana; conditions: Arabidopsis protoplasts
Experimental: The ABA signal transduction pathway was reconstituted in protoplasts by transient transfection of PYR/PYL receptor, ABI1, SnRK2.6, and ABF2 expression plasmids. Activation of an ABA-inducible RD29B promoter-LUC reporter was determined by luciferase assays normalized for β-glucuronidase activity from a UQ10-GUS reporter.
An ABA-inducible luciferase reporter was constructed by replacing the CBF3 promoter in the CBF3-LUC construct with the promoter region of RD29B, a highly ABA-inducible gene^2. CBF3-LUC, UQ10-GUS and ABI1 protoplast expression plasmid vectors were kindly provided by Jen Sheen (Massachusetts General Hospital, Boston, Mass. 02114).
Protoplasts were isolated from Arabidopsis thaliana ecotype Columbia-0 plants, which were grown on Jiffy7 soil (Jiffy Products Ltd., Canada) in an environment-controlled chamber at 22° C. with a photosynthetically active radiation of 75 μmol m^−2 s^−1 and a day/night cycle of 13 hours light/11 dark. Transient activity assays were performed in Arabidopsis mesophyll protoplasts from Columbia-0 wild-type plants as described by the Sheen laboratory^33. Transfected protoplasts were incubated for 5 hours in light in the presence of 0 or 5 μM (+) ABA and the indicated concentrations of pyrabactin, and then used for measuring LUC and GUS activity. […]

T1 sequence (O80992 14-188 A93F): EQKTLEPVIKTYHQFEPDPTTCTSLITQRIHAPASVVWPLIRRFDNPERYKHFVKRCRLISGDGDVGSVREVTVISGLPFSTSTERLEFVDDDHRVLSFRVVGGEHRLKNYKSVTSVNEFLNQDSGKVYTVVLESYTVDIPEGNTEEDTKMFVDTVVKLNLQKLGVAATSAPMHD
T2 sequence (Q8VZS8 36-211 I137V): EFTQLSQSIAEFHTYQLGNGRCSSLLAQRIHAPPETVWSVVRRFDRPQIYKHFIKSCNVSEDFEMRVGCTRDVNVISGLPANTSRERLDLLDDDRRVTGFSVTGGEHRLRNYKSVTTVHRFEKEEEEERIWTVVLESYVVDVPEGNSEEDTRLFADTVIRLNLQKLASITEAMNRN

O=S(=O)(NCc1ccccn1)c1ccc(Br)c2ccccc12 [Pyrabactin, pyrabactin]
Activation of mutant PYL2 A93F receptor (PYL2 A93F): pyrabactin-activated receptor
Effect on ABA-dependent inhibition of PP2Cs by PYL2 ([1]; high concentrations of pyrabactin, in the presence of ABA): reversed
Promotion of PYL1 to inhibit all three PP2Cs ([1]; phosphatase assays, receptor PYL1): promoted
Promotion of PYL2 to inhibit all three PP2Cs ([1]; phosphatase assays, receptor PYL2): not and did not promote
Promotion of PYL3 to inhibit all three PP2Cs ([1]; phosphatase assays, receptor PYL3): promoted
Promotion of PYL4 to inhibit all three PP2Cs ([1]; phosphatase assays, receptor PYL4): not
Promotion of PYL5 to inhibit all three PP2Cs ([1]; phosphatase assays, receptor PYL5): promoted
Promotion of PYL6 to inhibit all three PP2Cs ([1]; phosphatase assays, receptor PYL6): promoted
Promotion of PYR1 to inhibit all three PP2Cs ([1]; phosphatase assays, receptor PYR1): promoted
Promotion of PYL4 interaction with the three PP2Cs [2]: promoted interaction
Response of mutant PYL1 I137V receptor (PYL1 I137V): pyrabactin-inhibited receptor
PYL2 and ABA-dependent induction of the ABA-inducible reporter ([3]; receptor PYL2, with ABA): inhibited
PYR1-dependent induction of the ABA-inducible reporter RD29B-LUG ([3]; receptor PYR1, concentration-dependent): promoted
